Reference: patent US11912645B2, “Lipopeptide compounds for the treatment of pain disorders” (INSERM (Institut National de la Santé et de la Recherche …, priority 2017, dated 2024)

Tests used:
Caco-2 cells [1] = experiment: Paracellular permeability, 4 kDa FITC-dextran flux across Caco-2 monolayer; type: cell-based, human; settings: 10 μM apical, 24 h
Experimental: (§1) FIG. 5: C12-Asn-GABA crosses the epithelial barrier without modifying epithelial cells physiology. Caco-2 cells were cultivated into transwell chambers. After treatment with C12-Asn-GABA (800 ng) at the apical side, C12-Asn-GABA was quantified inside the cells and both the apical and basolateral compartments by LC-MS/MS (A); data are represented as mean±SEM, n=3 experiments of 3 wells per condition. Extracted ion chromatogram at the exact mass of GABA (104.0702 m/z) with a mass accuracy of 5 ppm of the GABA commercial standard (GABA (Std.) and apical and basolateral compartments after loading or not Caco-2 cells with 800 ng of GABA at the apical site (B); representation of one well, n=3 experiments of 3 wells per condition. Paracellular permeability assessed by the passage of FITC-dextran loaded at the apical side (C) and CXCL8 secretion assessed by ELISA (D) were monitored after treatment of Caco-2 cells at the apical side with C12-Asn-GABA (10 μM); data are represented as mean±SEM, n=3 experiments of 3 wells per condition. […]
To assess the effect of C12-Asn-GABA on paracellular permeability, transport of dextran 4 kDa FITC across a Caco-2 cell monolayer was investigated. […] In parallel, the release of CXCL8 from Caco-2 cells into the medium, of both apical and basolateral sides of the transwell, was assessed by ELISA. […]

Caco-2 cells [2] = experiment: Absorption across Caco-2 monolayer in transwell chambers; type: in vitro ADME, human; settings: 800 ng apical
Experimental: as §1
Caco-2 cells were grown in Glutamax DMEM (Gibco, Invitrogen life technologies, Paisley, UK) supplemented with 10% heat-inactivated fetal bovine serum (FBS) (Gibco, Invitrogen life technologies, Paisley, UK), 1% nonessential amino acids and 1% antibiotics (100 U/ml penicillin and […] streptomycin (Gibco, Invitrogen life technologies, Grand Island, N.Y., USA) at 37° C. in a 5% C02 water-saturated atmosphere. Cells were seeded on Transwell inserts (Costar, Sigma-Aldrich, Saint-Quentin Fallavier, France) and absorption studies of C12-Asn-GABA and GABA were performed 16 days later. These compounds were quantified by LC-MS/MS in both apical and basolateral chambers as well as in cells. The effect of C12-Asn-GABA (1-100 μM) on paracellular permeability was also measured by mucosal-to-serosal flux of 4 kDa Fluorescein Isothiocyanate (FITC)-labelled dextran as previously described^31. […]
The initial barrier for any drug absorption is the intestinal epithelial cell wall. […] The transport of GABA alone across the cell monolayer was also assessed. […]

## CCCCCCCCCCCC(=O)NC(CC(N)=O)C(=O)NCCCC(=O)O (stereo not drawn) [C12-Asn-GABA, C11 C(O)-Asn-gamma-aminobutyric acid]
Caco-2 cells [1]
  percentage of 4 kDa FITC traversing the cell monolayers (paracellular permeability): not modified
Caco-2 cells [2]; 24 h, LC-MS/MS
  fraction of apically added compound found in the basolateral chamber: approximately 50%
Caco-2 cells [2]; 24 h of incubation
  level in epithelial cells: low levels
